Measurements from patent US5389613A, “Method of treating prostate adenocarcinoma, prostate benign hypertrophia and endometriosis” (Roussel Uclaf, priority 1979, dated 1995).
“Also recorded” adds a separate entry of the source.

Tests used:
[1] = system: testicular steriodogenosis; test: Inhibitory activity on testicular steroidogenesis in a patient with prostate cancer (plasmatic steroids); format: in vivo, human; details: 500 μg intranasally twice a day
Excerpt: The results are reported in the graphs of sheet 2 of the Figures.

[2] = system: testicular steroidogensis; test: Inhibitory activity against testicular steroidogenesis in men in good health (seric LH, FSH and steroids by radioimmunoassay); format: in vivo
Method: The said product was administered intranasally at a dose of 500 μg in a few drops of distilled water at 8 A.M. on the third day of the test. For 2 days prior to the treatment and for 6 days after the treatment, samples of blood were taken daily at 8 A.M., 3 P.M. and 10 P.M. On the day of administration of the LH-RH agonist, blood samples were taken at 11 A.M. and 6 P.M.
The seric concentrations of LH and FSH were measured by radioimmuno-logic dosages with double antibodies and the antibodies for measuring LH and FSH were furnished by the National Pituitary Agency of N.I.H. in Bethesda, Md. The seric concentrations of steroids was measured by radioimmuno-logic dosages in which one ml of serum was extracted with ether and the steroids were separated on a LH-20 column before measuring with radioimmuno-logic dosages. The radioimmuno-logic dosage results were determined by a program derived from model II of Rodbard et al [Second Karolinska Symposium on Research Methods in Reproductive Endroerinology, Diczfalusky Editor, Copenhague (1970), p. 79-103]. The statistical significance was determined by the "multiple level test" of Duncan-Kramer [Kramer, Biometrics, Vol 12 (1956), p. 307]. The results are shown in the graphs on sheet 1 of the Figures filed herewith.

ovarian steroidogenosis = test: Inhibitory activity on ovarian steroidogenesis in women (seric LH, FSH, progesterone, estradiol); format: in vivo; details: for reduction of seric levels of progesterone compared to the controls: typical subject (sheet 3), 500 μg intranasal at 8 A.M. and 5 P.M.
Method: The study was conducted for 6 consecutive cycles consisting of 2 pretreatment cycles, 2 treatment cycles and 2 post-treatment cycles. […] Daily blood samples were taken between 4 and 6 P.M. to measure seric levels of LH, FSH, progesterone and estradiol which were determined by radioimmuno-logic tests with double antibodies. The antibodies to measure LH and FSH were furnished by the National Pituitory Agency of N.I.H. of Bethesda, Md.
Estradiol and progesterone were measured with highly specific antibodies developed against 7-(0-carboxymethyl)-oxime of estradiol and 12-(0-carboxymethyl)-oxime of progesterone, respectively [3H] 17β-estradiol and ^125 I-progesterone -12-[0-carboxymethyl)-oxime] used as tracers. The serum was extracted with benzene and the steroids were separated with a LH-20 column before the determination. The radioimmunological results were exploited by the program derived from model II of Rodbard and Lewald as in Example 1 and the statistical significance was measured by the multiple level test of Ducan-Kramer of Example 1. The results are shown in the graphs of sheets 3 to 5 of the Figures.

[3] = intranasal 500 μg, men, 3rd day following administration

CCNC(=O)[C@@H]1CCCN1C(=O)[C@H](CCCNC(=N)N)NC(=O)[C@H](CC(C)C)NC(=O)[C@@H](COC(C)(C)C)NC(=O)[C@H](Cc1ccc(O)cc1)NC(=O)[C@H](CO)NC(=O)[C@H](Cc1c[nH]c2ccccc12)NC(=O)[C@H](Cc1c[nH]cn1)NC(=O)[C@@H]1CCC(=O)N1 [D Ser (Tbu)^6 of Gly^10 LH-RH ethylamide, [D Ser (Tbu)^6 des.Gly NH2^10] LH-RH ethylamide]
androgenic steroids (plasmatic) [1]: diminution | level of testosterone ([1]; two weeks of treatment): stabilized at a very low level | effect on testicular steroidogenesis in man ([2]; intranasal 500 μg, men): inhibition of testicular steroidogenesis | seric concentration of 17-OH-progesterone relative to initial control values [2, 3]: 40% | seric concentration of testosterone relative to initial control values [2, 3]: 50% | LH and FSH plasmatic levels ([2]; intranasal 500 μg, men, day of administration): increase | seric concentration of pregnenolone, 17-OH-pregnenolone, progesterone, 17-OH-progesterone, Δ5-androstene-3β,17β-diol and testosterone ([2]; intranasal 500 μg, men, on the day of treatment): increased | level of testosterone/steroids on the fourth day after administration ([2]; single intranasal dose of 500 μg, fourth day after administration): returned to normal; also recorded: return to normal levels | duration of the drop of seric levels of testicular steroids (testosterone and its precursors) ([2]; single intranasal dose of 500 μg, human): 3 days | level of progesterone, pretreatment cycles as base of 100% (ovarian steroidogenosis; 12 cycles of post-treatment): 99% | level of progesterone, pretreatment cycles as base of 100% (ovarian steroidogenosis; 12 cycles of treatment): 46% | level of progesterone reduced as compared to the controls (ovarian steroidogenosis; 12 cycles of treatment (sheet 5), scale 13 to 127%): 46% | reduction of seric levels of progesterone compared to the controls (ovarian steroidogenosis; first cycle of treatment): 13% | reduction of seric levels of progesterone compared to the controls (ovarian steroidogenosis; second cycle of treatment): 34%
